# Assay results published in patent US9963476B2, “Antioxidant compound having anti atherosclerotic effect and preparation thereof” (Council of Scientific and Industrial Research, priority 2015, dated 2018).
# How the values were obtained:
# HAEC = test: Cellular uptake: Mito-Esc/esculetin quantified by ESI-MS in cytosolic and mitochondrial fractions of HAEC; format: in vitro ADME, human
# Experimental: (§1) After the treatment, cells were washed thrice with PBS. Similarly Mito-Esculetin+ Ang-II treatment group, Ang-II alone treatment group and control Apo E^−/− mice aortic tissue was taken. The isolation of mitochondrial and cytosolic extracts was carried out using a commercially available Proteo Extract Cytosol/Mitochondria Fractionation Kit (Cat. no. QIA88-Merck, USA) according to manufacturer's instructions. Initially, mitochondrial and cytosolic fractions were separated using a commercially available kit as mentioned elsewhere. Mito-Esc was quantified in the mitochondrial and cytosolic fractions obtained from HAEC and aorta of ApoE^−/− mice of different treatment groups as mentioned in Animal Experiments section (Table-1). Electrospray ionization (ESI)-MS. ESI-MS (positive mode) measurements were performed using a quadrupole time-of-flight mass spectrometer (QSTAR XL, Applied Biosystems/MDS Sciex, Foster City, Calif., USA). The data acquisition was under the control of Analyst QS software (Applied Biosystems). For the CID (collision-induced dissociation) experiments, the precursor ions were selected using the quadrupole analyzer and the product ions were analyzed using the TOF analyzer.
# Apo E−/− mice aorta = test: Mito-Esc quantified by ESI-MS in cytosolic and mitochondrial fractions of ApoE−/− mice aortic tissue; format: in vivo; details: 0.5 mg/kg/day in drinking water
# Experimental: as §1, with “E^-/-” for “E^−/−”, “ApoE^-/-” for “ApoE^−/−”
# SIRT-3, PGC-1α, TFAM = details: HAEC, 8 h
# Experimental: At the end of the treatments, HAECs were washed with ice-cold DPBS and resuspended in RIPA buffer (20 mM Tris-HCl, pH 7.4/2.5 mM EDTA/1% Triton X-100/1% sodium deoxycholate/1% SDS/100 mM NaCl/100 mM sodium fluoride) containing protease inhibitor cocktail and phosphatase inhibitor cocktail-2 and -3. The lysate was centrifuged for 15 min at 12000×g. […] Protein bands were detected by using HRP substrate (Millipore-luminata). All the antibodies used for this study were from CST.
# Next we investigated the ability of Mito-Esc to modulate the mitochondrial biogenetic regulators namely, silent mating type information regulation 2 homolog (SIRT)-3, Peroxisome proliferator-activated receptor-gamma coactivator (PGC)-1α and mitochondrial transcription factor A (TFAM).
# [1] = tested on: eNOS phosphorylation (Ser-1177); test: Western blot of eNOS phosphorylation in HAEC; format: cell-based, human; details: 8 h
# Experimental: To gain mechanistic insight on Mito-Esc-mediated protection of endothelial cells from oxidant-induced endothelial cell death, initially we hypothesized that Mito-Esc may augment intracellular nitric oxide generation. To study this, HAEC were treated with both Mito-Esc and esculetin in the presence or absence of H2O2 for a period of 4 h and nitric oxide (NO) levels were monitored by DAF-2 derived green fluorescence. Previously, it has been shown that DAF-2 forms a fluorescent triazole-type product in the presence of an oxidant derived from nitric oxide and oxygen interaction (Proc. Natl. Acad. Sci. USA 99: 11127-11132; 2002.; Am. J. Physiol. Regul. Integ. Comp. Physiol. 286:R344-R431; 2004). […] Next, we investigated the possible role of endothelial nitric oxide synthase (eNOS) in mediating the Mito-Esc induced NO generation in HAEC. For this, endothelial cells were treated with various concentrations of Mito-Esc (1-5 μM) for a period of 8 h. […] To further substantiate the results of DAF fluorescence, eNOS phosphorylation was measured in HAEC incubated with either with H2O2 or Ang-II for 8 h in cells pretreated with Mito-Esc or native esculetin. It was observed that both H2O2 and Ang-II caused a reduction in Phospho eNOS (Ser-1177) levels (FIG. 4D). Ang-II treatment imposed a drastic inhibition of phospho-eNOS levels when compared to H2O2 treatment in endothelial cells (FIG. 4D).
# [2] = tested on: Ang-II-induced atherosclerosis in ApoE−/− mice; test: Ang-II-induced aortic aneurysm and atheromatous plaque formation in ApoE−/− mice
# Experimental: (§2) Experiments were conducted in 2-month-old male apolipoprotein E knockout (ApoE^−/−) mice according to the guidelines formulated for care and use of animals in scientific research (ICMR, New Delhi, India) at a CPCSEA (Committee for the Purpose of Control and Supervision of Experiments on Animals) registered animal facility. […] Animals were randomly divided into 3 groups each n=7:1) control 2) Ang-II treatment and 3) Mito-Esculetin+Ang-II treatment. Ang-II and Mito-Esculetin treatment groups received Ang-II (sigma) at a dose of 1.44 mg/kg/day for 6 weeks through sub-cutaneous route where as control group received normal saline. Mito-Esculetin treatment group received the compound at a dose of 0.5 mg/kg/day in normal drinking water. All animals were fed on normal chow throughout the study. After 6 weeks, all groups of animals were sacrificed as per standard protocols for euthanasia.
# (§3) We further analyzed the vascular remodelling employing histological stains in tissue sections of thoracic aortas. […] In tune with this, we have also measured Mac-3 levels by flow cytometry.
# [3] = tested on: eNOS and AMPK phosphorylation; test: eNOS and AMPK phosphorylation in total aorta lysate of ApoE−/− mice; details: compared to Ang-II alone or control
# Experimental: Experiments were conducted in 2-month-old male apolipoprotein E knockout (ApoE^−/−) mice according to the guidelines formulated for care and use of animals in scientific research (ICMR, New Delhi, India) at a CPCSEA (Committee for the Purpose of Control and Supervision of Experiments on Animals) registered animal facility. […] Animals were randomly divided into 3 groups each n=7:1) control 2) Ang-II treatment and 3) Mito-Esculetin+Ang-II treatment. Ang-II and Mito-Esculetin treatment groups received Ang-II (sigma) at a dose of 1.44 mg/kg/day for 6 weeks through sub-cutaneous route where as control group received normal saline. Mito-Esculetin treatment group received the compound at a dose of 0.5 mg/kg/day in normal drinking water. […]
# At the end of the treatments, HAECs were washed with ice-cold DPBS and resuspended in RIPA buffer (20 mM Tris-HCl, pH 7.4/2.5 mM EDTA/1% Triton X-100/1% sodium deoxycholate/1% SDS/100 mM NaCl/100 mM sodium fluoride) containing protease inhibitor cocktail and phosphatase inhibitor cocktail-2 and -3. […] Protein bands were detected by using HRP substrate (Millipore-luminata). […]
# To further corroborate Mito-Esc's ability to protect from Ang-II-induced endothelial dysfunction during the progression of atheromatous plaque formation, we measured phospho-AMPK, AMPK, phospho-eNOS and eNOS protein levels in total aorta lysate.
# [4] = tested on: Ang-II-induced atherosclerosis in ApoE−/− mice; test: Serum lipid profile of Ang-II treated ApoE−/− mice; format: in vivo
# Experimental: as §2, §3
# [5] = tested on: human aortic endothelial cells (HAEC); test: Trypan blue cell viability assay, oxidant-induced endothelial cell death; format: cell-based; details: 2.5 μM, 2 h pretreatment, H2O2 500 μM or Ang-II 500 nM, 24 h
# Experimental: Human aortic endothelial cells (HAECs) were obtained from ATCC (Manassas, Va.) and maintained (37° C. 5% CO2) in basal medium supplemented with 10% FBS, VEGF (5 ng/mL), hEGF (5 ng/mL), hFGF (5 ng/mL), IGF-1 (15 ng/mL), ascorbic acid (50 μg/mL), hydrocortisone (1 μg/mL), amphotericin (15 ng/mL), gentamicin (30 ng/mL) and heparin (0.75 Units/mL). Cells used in this study were between passages 4 and 9. Esculetin, Mito-Esc, TPP and nitric oxide synthase inhibitor (L-NAME) were added 2 h before the addition of H2O2 or Ang-II.
# At the end of the treatments, cells were harvested and re-suspended in 0.4% trypan blue (Life Technologies) and percent cell viability was counted using cell countess chamber (Life Technologies).
# For this, cells were pretreated for 2 h with either Mito-Esc or esculetin before they were incubated with either H2O2 or Ang-II.
# [6] = ApoE−/− mice, thoracic aorta sections
# [7] = serum, ApoE−/− mice, 45 days, Ang-II alone or Ang-II + Mito-Esc
smiles,measurement,setting,value
O=c1cc(CCCCCCCC[P+](c2ccccc2)(c2ccccc2)c2ccccc2)c2cc(O)c(O)cc2o1.[Br-] [Mito-Esc],accumulation in the mitochondria compared to native esculetin,HAEC,selectively accumulated in the mitochondria
same,Cytosolic fraction,"HAEC; HAEC, 2.5 μM, 24 h",4488 ± 104 nmol/mg protein
same,Mitochondrial fraction,"HAEC; HAEC, 2.5 μM, 24 h",14523 ± 342 nmol/mg protein
same,Mitochondrial fraction,Apo E−/− mice aorta,2547 ± 286 nmol/mg protein
same,"RNA and protein levels of PGC-1α, TFAM","SIRT-3, PGC-1α, TFAM; 2.5 μM",significantly increased
same,SIRT-3 levels,"SIRT-3, PGC-1α, TFAM; 1-5 μM",significantly increased
same,"Ang-II treatment induced inhibition of PGC-1A, TFAM and SIRT-3 levels","SIRT-3, PGC-1α, TFAM; Ang-II 500 nM, 2.5 μM",significantly reversed
same,phosphorylation of eNOS at Ser-1177,[1]; 1-5 μM,dose-dependently increased
same,oxidant-mediated decrease in eNOS-phosphorylation,"[1]; H2O2 or Ang-II, pretreated cells",caused cells resistant to oxidant-mediated decrease
same,thick fibrous mature connective tissue around atheroma (Masson trichrome staining),[2]; ApoE−/− mice aorta,almost disappeared
same,"Ang-II-induced plaque extension, micro/pseudo aneurysm formation and maximal aortic diameters","[2]; ApoE−/− mice, thoracic and abdominal aorta, six weeks, 0.5 mg/kg/day in drinking water",significant reduction
same,Ang-II induced severe atherosclerotic lesions (H&E staining of aorta),[2]; [6],complete protection
same,luminal diameter compared to Ang-II alone,[2]; [6],significantly restored
same,phosphorylation statuses of eNOS and AMPK in total aorta lysate,[3],significant increase
same,"Ang-II mediated increase in LDL, VLDL, triglycerides and total cholesterol",[4]; ApoE−/− mice serum,significantly reduced
same,serum HDL levels,[4]; ApoE−/− mice serum,significant rise
same,HDL,[4]; [7],45.53 ± 0.4 mg/dL
same,LDL,[4]; [7],218.40 ± 20.9 mg/dL
same,Total Cholesterol,[4]; [7],414.85 ± 8.2 mg/dL
same,Triglycerides,[4]; [7],150.74 ± 3.8 mg/dL
same,VLDL,[4]; [7],30.15 ± 0.4 mg/dL
same,oxidant (H2O2 and Ang-II)-induced endothelial cell death,[5],significantly inhibited
